A value given as a limit tells only on which side of the number the result lay.

Test [1] deals with human large intestine cancer cell (HCT 116) tumor. In words: Tumor growth inhibition test in HCT 116-subcutaneously transplanted nude mouse. The note with it: dose of 100 mg/kg, repeated oral administration, HCT-116 in female BALB nude mice, control group = 100%, read-out: rate of suppression of tumor volume. The test is classed as in vivo. Here is the method: A human large intestine cancer cell line (HCT-116) was cultured in a McCoy's 5A medium containing 10% FBS and 1% penicillin/streptomycin/amphotericin B and adjusted to 1.0×10^8 cells/mL with PBS or Hanks solution (HBSS(−)). The prepared cell suspension was subcutaneously injected at 0.1 mL/mouse to the right abdomens of female BALB nude mice (supplied by Charles River Laboratories Japan, Inc.). After rearing for a certain period, the long diameter (mm) and short diameter (mm) of tumor were measured with electronic calipers, and the tumor volume was calculated according to the following expression: Tumor volume (mm^3)=(Long diameter)×(Short diameter)×(Short diameter)×0.5
Individuals whose tumor volume was within the range of 50 to 200 mm^3 were selected and grouped such that the tumor volume was almost equivalent, then a test compound or only a solvent was orally administered in a repeated manner, and the body weights and tumor volume were measured. A test compound was suspended in a 0.5 w/v % aqueous methylcellulose solution (0.5% MC) (manufactured by Wako Pure Chemical Industries, Ltd.) and orally administered at 10 mL/kg in a repeated manner. When the tumor volume of the control group was defined as 100%, the rate of suppression of tumor volume (%) at each dose of the test compound was calculated.

Another test has as its target T1, CDK7 (Homo sapiens, UniProt P50613).
T1 construct: purchased Carna Biosciences, Inc. 04-108
In words: CDK7 enzyme inhibition test. The settings on record: [γ-33P]ATP, MBP substrate, 60 min preincubation at 25°C; Ki=IC50/(1+S/Km); read-out: Ki value of CDK7 inhibitory activity. In kind it is biochemical. The method, boiled down:
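Commercial human CDK7 with myelin basic protein substrate in HEPES pH 7.4 buffer with DTT, Triton X-100, MgCl2; compound preincubated 60 min at 25° C, then reaction run 20 min at 30° C after adding [γ-^33P]ATP (500 μM solution). TCA-precipitated ^33P-MBP counted by scintillation; IC50 converted to Ki via Ki=IC50/(1+S/Km).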

In the next test the test system is IL-17 production. As to the kind of experiment: Human PBMC various-stimulant cocktail-induced IL-17 production inhibition test. The test is classed as cell-based. The settings on record: 120 h, human T-cell suspension from PBMC, culture for 5 days, ELISA. The text has this:
PBMC was separated and collected by using Ficoll-Paque (manufactured by GE Healthcare Japan Corp.) from blood collected from a healthy human adult in the presence of heparin. The collected PBMC was further cultured in a flask for a certain time, and then, non-adherent cells in the supernatant were collected and used as a T-cell suspension.
A RPMI1640 medium containing 10% FBS, 1% penicillin/streptomycin/amphotericin B, essential amino acids, and pyruvic acid and containing a test compound dissolved in DMSO, a human CD28 antibody, a human IFN-γ antibody, a human IL-4 antibody, human IL-6, human IL-23, human IL-1β, and human TGF-β was added at 100 μL/well to T cell Activation Plate Anti-Human CD3 96-well plate. Subsequently, 100 μL of a T-cell suspension adjusted to 2×10^5 cells/mL was added to each well (final DMSO concentration: 0.1%). Only DMSO was added to wells not supplemented with the test compound. After culture for 5 days in a carbon dioxide incubator, the culture supernatant was collected and stored at −20° C. until IL-17 content measurement.
In the measurement of an IL-17 content in the culture supernatant, a sandwich ELISA kit (Quantikine Human IL-17, manufactured by R&D Systems, Inc.) was used. The IL-17 content of each sample was calculated from the calibration curve of Standard IL-17 included in the kit. […] The concentration of the test compound necessary for inhibiting 50% of IL-17 production (IC50 value) was calculated from the concentration of the added test compound and the rate of inhibition of IL-17 production by the test compound by using EXSUS (version 8.1.0, manufactured by CAC Exicare Corp.).

T1 sequence (P50613 whole entry): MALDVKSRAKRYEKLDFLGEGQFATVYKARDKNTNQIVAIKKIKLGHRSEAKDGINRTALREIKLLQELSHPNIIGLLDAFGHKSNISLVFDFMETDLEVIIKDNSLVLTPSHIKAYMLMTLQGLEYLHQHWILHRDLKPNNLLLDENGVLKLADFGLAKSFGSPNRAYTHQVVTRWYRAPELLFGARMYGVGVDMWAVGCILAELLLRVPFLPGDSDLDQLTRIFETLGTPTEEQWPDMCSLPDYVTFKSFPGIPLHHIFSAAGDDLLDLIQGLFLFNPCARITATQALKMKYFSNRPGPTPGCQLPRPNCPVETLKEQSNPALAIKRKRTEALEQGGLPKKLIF
T1 sequence (P51946 whole entry partner): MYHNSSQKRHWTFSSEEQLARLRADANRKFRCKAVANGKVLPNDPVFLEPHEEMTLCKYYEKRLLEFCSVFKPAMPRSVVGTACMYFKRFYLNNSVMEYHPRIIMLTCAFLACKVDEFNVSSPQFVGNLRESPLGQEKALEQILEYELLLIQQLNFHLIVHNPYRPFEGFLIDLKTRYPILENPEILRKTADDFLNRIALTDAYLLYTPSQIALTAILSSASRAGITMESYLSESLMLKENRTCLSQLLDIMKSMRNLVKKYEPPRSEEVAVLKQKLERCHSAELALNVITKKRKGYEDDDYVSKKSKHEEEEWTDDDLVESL
T1 sequence (P51948 whole entry partner): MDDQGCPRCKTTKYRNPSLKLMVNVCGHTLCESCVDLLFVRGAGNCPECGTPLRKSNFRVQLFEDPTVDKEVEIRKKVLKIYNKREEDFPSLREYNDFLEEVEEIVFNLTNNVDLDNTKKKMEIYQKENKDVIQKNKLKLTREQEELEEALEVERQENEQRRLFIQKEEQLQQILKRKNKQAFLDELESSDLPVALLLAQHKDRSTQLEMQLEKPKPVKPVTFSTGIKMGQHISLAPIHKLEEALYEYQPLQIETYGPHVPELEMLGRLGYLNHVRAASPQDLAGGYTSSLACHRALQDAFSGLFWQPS

As to `CC1(C)c2[nH]nc(NC(=O)C3([Si](C)(C)C)CCC3)c2CN1C(=O)Nc1ccccc1F` [IV-3, N-(2-Fluorophenyl)-6,6-dimethyl-3-[1-(trimethylsilyl)cyclobutanecarboxamido]-4,6-dihydropyrrolo[3,4-c]pyrazole-5(1H)-carboxamide], the inhibition in vivo at 100 mg/kg in test [1] was at least 50%. For the same compound, the Ki on CDK7 is at most 50 nM. Also, the IC50 in the test with IL-17 production is at most 100 nM.

Turning to `CC1(C)c2[nH]nc(NC(=O)C3([Si](C)(C)C)CCC3)c2CN1C(=O)Nc1ccccc1Br` [IV-15, N-(2-Bromophenyl)-6,6-dimethyl-3-[1-(trimethylsilyl)cyclobutanecarboxamido]-4,6-dihydropyrrolo[3,4-c]pyrazole-5(1H)-carboxamide], in test [1], the inhibition in vivo at 100 mg/kg is at least 50%. Also, the Ki on CDK7 was at most 50 nM.

On to `Cc1ccccc1NC(=O)N1Cc2c(NC(=O)C3([Si](C)(C)C)CCC3)n[nH]c2C1(C)C` [IV-21, 6,6-Dimethyl-N-(o-tolyl)-3-[1-(trimethylsilyl)cyclobutanecarboxamido]-4,6-dihydropyrrolo[3,4-c]pyrazole-5(1H)-carboxamide], for which the inhibition in vivo at 100 mg/kg in test [1] is at least 50%. The Ki on CDK7 is at most 50 nM.

Take `CC1(C)c2[nH]nc(NC(=O)C3([Si](C)(C)C)CCC3)c2CN1C(=O)Nc1c(F)cccc1Cl` [IV-113, N-(2-Chloro-6-fluorophenyl)-6,6-dimethyl-3-[1-(trimethylsilyl)cyclobutanecarboxamido]-4,6-dihydropyrrolo[3,4-c]pyrazole-5(1H)-carboxamide]: the inhibition in vivo at 100 mg/kg in test [1] is at least 50%. The Ki on CDK7 was at most 50 nM.

As to `Cc1ccc(F)c(NC(=O)N2Cc3c(NC(=O)C4([Si](C)(C)C)CCC4)n[nH]c3C2(C)C)c1` [IV-127, N-(2-Fluoro-5-methylphenyl)-6,6-dimethyl-3-[1-(trimethylsilyl)cyclobutanecarboxamido]-4,6-dihydropyrrolo[3,4-c]pyrazole-5 (1H)-carboxamide], the inhibition in vivo at 100 mg/kg in test [1] is at least 50%. Also, the Ki on CDK7 is at most 50 nM.

For the compound `Cc1cccc(F)c1NC(=O)N1Cc2c(NC(=O)C3([Si](C)(C)C)CCC3)n[nH]c2C1(C)C` [IV-129, N-(2-Fluoro-6-methylphenyl)-6,6-dimethyl-3-[1-(trimethylsilyl)cyclobutanecarboxamido]-4,6-dihydropyrrolo[3,4-c]pyrazole-5 (1H)-carboxamide], the Ki at CDK7 is at most 50 nM. The compound also displayed an IC50 in the test with IL-17 production of at most 100 nM.

For the compound `CCc1cccc(F)c1NC(=O)N1Cc2c(NC(=O)C3([Si](C)(C)C)CCC3)n[nH]c2C1(C)C` [IV-137, N-(2-Ethyl-6-fluorophenyl)-6,6-dimethyl-3-[1-(trimethylsilyl)cyclobutanecarboxamido]-4,6-dihydropyrrolo[3,4-c]pyrazole-5(1H)-carboxamide], the Ki at CDK7 was at most 50 nM. In the test with IL-17 production, this compound registered an IC50 of at most 100 nM.

Take `COc1cccc(F)c1NC(=O)N1Cc2c(NC(=O)C3([Si](C)(C)C)CCC3)n[nH]c2C1(C)C` [IV-161, N-(2-Fluoro-6-methoxyphenyl)-6,6-dimethyl-3-[1-(trimethylsilyl)cyclobutanecarboxamido]-4,6-dihydropyrrolo[3,4-c]pyrazole-5(1H)-carboxamide]: the Ki at CDK7 is at most 50 nM.

`CC1(C)c2[nH]nc(NC(=O)C3([Si](C)(C)C)CCC3)c2CN1C(=O)Nc1c(F)cccc1OC(F)F` [IV-169, N-[2-(Difluoromethoxy)-6-fluorophenyl]-6,6-dimethyl-3-[1-(trimethylsilyl)cyclobutanecarboxamido]-4,6-dihydropyrrolo[3,4-c]pyrazole-5(1H)-carboxamide]: at CDK7, the Ki is at most 50 nM.

`CC1(C)c2[nH]nc(NC(=O)C3([Si](C)(C)C)CCC3)c2CN1C(=O)Nc1c(Cl)cccc1Cl` [IV-199, N-(2,6-Dichlorophenyl)-6,6-dimethyl-3-[1-(trimethylsilyl)cyclobutanecarboxamido]-4,6-dihydropyrrolo[3,4-c]pyrazole-5(1H)-carboxamide]: in test [1], the inhibition in vivo at 100 mg/kg is at least 50%. In addition, the Ki at CDK7 was at most 50 nM. The IC50 in the test with IL-17 production is at most 100 nM.

As to `Cc1cccc(Cl)c1NC(=O)N1Cc2c(NC(=O)C3([Si](C)(C)C)CCC3)n[nH]c2C1(C)C` [IV-215, N-(2-Chloro-6-methylphenyl)-6,6-dimethyl-3-[1-(trimethylsilyl)cyclobutanecarboxamido]-4,6-dihydropyrrolo[3,4-c]pyrazole-5 (1H)-carboxamide], the inhibition in vivo at 100 mg/kg in test [1] is at least 50%. In addition, on CDK7, the inhibitory constant (Ki) was at most 50 nM. This compound also had an IC50 with IL-17 production of at most 100 nM.

`COc1cccc(Cl)c1NC(=O)N1Cc2c(NC(=O)C3([Si](C)(C)C)CCC3)n[nH]c2C1(C)C` [IV-247, N-(2-Chloro-6-methoxyphenyl)-6,6-dimethyl-3-[1-(trimethylsilyl)cyclobutanecarboxamido]-4,6-dihydropyrrolo[3,4-c]pyrazole-5(1H)-carboxamide]: at CDK7, the Ki is at most 50 nM. The IC50 in the test with IL-17 production was at most 100 nM.

Consider `Cc1cccc(Br)c1NC(=O)N1Cc2c(NC(=O)C3([Si](C)(C)C)CCC3)n[nH]c2C1(C)C` [IV-299, N-(2-Bromo-6-methylphenyl)-6,6-dimethyl-3-[1-(trimethylsilyl)cyclobutanecarboxamido]-4,6-dihydropyrrolo[3,4-c]pyrazole-5 (1H)-carboxamide], for which the inhibition in vivo at 100 mg/kg in test [1] is at least 50%. The Ki on CDK7 was at most 50 nM. The same compound had an IC50 with IL-17 production of at most 100 nM.

Consider `Cc1cc(F)ccc1NC(=O)N1Cc2c(NC(=O)C3([Si](C)(C)C)CCC3)n[nH]c2C1(C)C` [IV-359, N-(4-Fluoro-2-methylphenyl)-6,6-dimethyl-3-[1-(trimethylsilyl)cyclobutanecarboxamido]-4,6-dihydropyrrolo[3,4-c]pyrazole-5 (1H)-carboxamide], for which the inhibition in vivo at 100 mg/kg in test [1] is at least 50%. In addition, the Ki at CDK7 was at most 50 nM.

As for `Cc1ccc(F)cc1NC(=O)N1Cc2c(NC(=O)C3([Si](C)(C)C)CCC3)n[nH]c2C1(C)C` [IV-361, N-(5-Fluoro-2-methylphenyl)-6,6-dimethyl-3-[1-(trimethylsilyl)cyclobutanecarboxamido]-4,6-dihydropyrrolo[3,4-c]pyrazole-5 (1H)-carboxamide], the inhibition in vivo at 100 mg/kg in test [1] was at least 50%. In addition, the inhibitory constant (Ki) at CDK7 is at most 50 nM. The compound also had an IC50 with IL-17 production of at most 100 nM.

On to `Cc1ccc(C)c(NC(=O)N2Cc3c(NC(=O)C4([Si](C)(C)C)CCC4)n[nH]c3C2(C)C)c1` [IV-379, N-(2,5-Dimethylphenyl)-6,6-dimethyl-3-[1-(trimethylsilyl)cyclobutanecarboxamido]-4,6-dihydropyrrolo[3,4-c]pyrazole-5(1H)-carboxamide], for which the inhibition in vivo at 100 mg/kg in test [1] was at least 50%. Also, the Ki on CDK7 was at most 50 nM. In addition, the IC50 in the test with IL-17 production is at most 100 nM.

`CC1(C)c2[nH]nc(NC(=O)C3([Si](C)(C)C)CCC3)c2CN1C(=O)Nc1c(F)ccc(F)c1F` [IV-597, 6,6-Dimethyl-N-(2,3,6-trifluorophenyl)-3-[1-(trimethylsilyl)cyclobutanecarboxamido]-4,6-dihydropyrrolo[3,4-c]pyrazole-5(1H)-carboxamide]: in test [1], the inhibition in vivo at 100 mg/kg was at least 50%. Besides, at CDK7, the Ki was at most 50 nM.

`CC1(C)c2[nH]nc(NC(=O)C3([Si](C)(C)C)CCC3)c2CN1C(=O)Nc1c(F)ccc2cc(Cl)oc12` [IV-1063, N-(2-Chloro-6-fluorobenzofuran-7-yl)-6,6-dimethyl-3-[1-(trimethylsilyl)cyclobutanecarboxamido]-4,6-dihydropyrrolo[3,4-c]pyrazole-5(1H)-carboxamide]: the inhibition in vivo at 100 mg/kg in test [1] was at least 50%. The Ki at CDK7 was at most 50 nM.

The record behind these values is patent publication US10894798B2, “Substituted dihydropyrrolopyrazole derivative” (UBE INDUSTRIES, LTD., priority 2015, dated 2021).
